Measurements from patent publication US20030153081A1, “Viral core protein-cationic lipid-nucleic acid-delivery complexes” (priority 1999, published 2003).

Columns and labels:
ND7 cells [1] = test: X-gal staining, cationic lipid variations in ND7 cells; type: cell-based, rat/mouse; conditions: ND7, Liposome:DNA 3:1 w/w
Method: We determined whether LMD complexes could be bettered by incorporating poly cationic cholesterol lipids (WO 97/45442). CDAN (B198), ACHx (CJE52) and CTAP (B232) (FIG. 9) were used to make cationic liposomes in place of DC-Chol. Each cationic liposome system used was composed of 60 mol % of cationic lipid and 40 mol % of DOPE and prepared as described in Example 4. The following different LMD complex systems were prepared and compared: LMD(DC-Chol), LMD(B198), LMD(CJE52), and LMD(B232). All LMD systems were prepared with cationic liposomes (total lipid 20 μmol) and 0.6 mg of Mu1 peptide per 1.0 mg of DNA (pCMVβ), as described above.
Liposome:DNA (LD) complex mixtures (lipoplexes) were prepared for control experiments with a Liposome:DNA ratio of 3:1 (w/w), the optimal composition for transfection of ND7 cells.
Transfection in ND7 cells; ND7 cells were seeded in NGM (with 10% serum) at a density of approximately 4×10^4 cells per well, in a 24-well culture plate. After 24 h, cells were washed by brief exposure to NGM (serum free) and then treated with solutions containing LMD or LD complexes, prediluted with NGM (serum free) (final DNA concentration 2.5 μg/ml in all cases), for 1 h. Cells were then washed again and incubated for a further 48 h prior to processing for histochemical staining with X-gal. The number of cells stained blue were counted under an inverted microscope.

HeLa cells = test: β-galactosidase assay, alternative cationic peptides in HeLa cells; type: cell-based, human; conditions: DC-Chol:DOPE liposome:peptide:DNA 12:0.6:1, 30 min, DNA 1.0 μg/ml
Method: In order to examine the effects of various alternative cationic peptides on transfection activities, a series of liposome:cationic peptide:DNA complexes were prepared and their relative transfection abilities analysed in vitro. The peptides used were poly-lysine hydrochloride (average molecular weight 3970, Sigma), poly arginine hydrochloride (average molecular weight 11800, Sigma) a peptide derived from protein V, pV (p5, sequence shown below), a peptide analogue of Mu1 (V, sequence shown below) and Mu1 peptide itself. The p5 peptide and V peptide were synthesized using the same solid-phase peptide synthesis methodology as was used to prepare Mu1 peptide.
Each peptide was combined with cationic liposome (DC-Chol:DOPE 3:2 m/m) and DNA (pCMVβ) in the liposome:peptide:DNA ratio of 12:0.6:1 (w/w/w) as described in Example 4. The transfection activities were examined using HeLa cells (human epithelial cells). The cells were seeded at an approximate density of 5×10^4 per well in a 24-well culture plate in DMEM supplemented with 10% FCS and grown for 24 h in the presence of 5% CO2 at 37° C. Cells were washed by brief exposure to DMEM and then treated with solutions containing LMD or LD complexes, prediluted with OPTIMEM (Gibco) (final DNA concentration 1.0 μg/ml in all cases), for 30 min. Cells were then washed again and incubated for a further 48 h in DMEM supplemented with 10% FCS prior to harvesting. The level of β-galactosidase enzyme activity was determined with a standard assay kit (chemiluminescent, Roche).

plasmid DNA (pCMVβ) = test: gel retardation assay (DNA binding analysis)
Method: One microgram of pCMVβ was incubated with 0 μg (lane 2), 5 μg (lane 3), 10 μg (lane 4), 15 μg (lane 5), 20 μg (lane 6), 25 μg (lane 7) and 30 μg (lane 8) of BSA for 10 minutes at room temperature in 1× HBS. Samples were then analyzed on a 1% agarose gel for altered mobility.
When ratios of 0.5 (w/w) or greater were used, however, migration of both forms of pDNA was severely retarded.
C). The Polyomavirus protein Vp1 was much less efficient at preventing pDNA migration. pCMVβ (1 μg) was incubated with 2 μg (lane 2), 4 μg (lane 3), 6 μg (lane 4), 8 μg (lane 5), 16 μg (lane 6), 32 μg (lane 7) and 0 μg (lane 8) Vp1. Only ratios of 6 or higher (protein: pDNA, w/w) caused significant retardation of supercoiled pDNA (lane 6, lower band). Also, not until a ratio of 32 (w/w) was used was there any effect on relaxed pDNA (lane 7, upper band). In all gels lane 1 corresponds to 1 Kb DNA marker (BRL).
The purified peptides were reconstituted in sterile distilled H2O at 3 mg/mL. Peptide and pDNA were complexed in 20 μL HEPES buffered saline (137 mM NaCl, 5 mM KCl, 0.75 mM Na2HPO4, 19 mM HEPES, pH 7.4) for 20 minutes at room temperature. Peptide: pDNA complexes were subsequently analyzed by agarose gel electrophoresis (1%). Control incubations for general macromolecular pDNA interactions were performed with varying amounts of molecular biology grade purified bovine serum albumin (Sigma).
Varying amounts of purified peptide were incubated at room temperature in HBS for approximately 10 minutes and then analyzed by agarose gel electrophoresis. Without the addition of peptide, supercoiled and relaxed circular plasmid DNA (pDNA) migrated in the expected manner (FIG. 1, lane 8).

ND7 cells [2] = test: β-galactosidase reporter gene assay, transfection of undifferentiated ND7 cells; type: cell-based, rat/mouse; conditions: peptide with cationic liposome, pCMVβ:liposome 1:3 w/w
Method: ND7 cells were seeded at a density of 5 ×10^4 cells/well in 24 well culture dishes 24 hrs prior to transfection. Immediately prior to transfection, cells were washed in serum-free media. Complexes were formed by incubating pCMVβ with Mu1 prior to the addition of the cationic liposome DC-Chol/DOPE. In each case 1 μg pCMVβ was complexed with 0.6, 6, 12, and 21 μg Mu1 peptide. Each of these combinations was then complexed with 3, 4 and 6 μg DC-Chol/DOPE. ND7 cells were exposed to transfection complexes for 2 hours then maintained at 37° C., 5% CO2 for another 24 hrs before being harvested and processed for β-galactosidase enzyme assay. Numbers represent means±SD, n=3.
pCMVβ plasmid DNA was complexed to various amounts of polycationic peptide and then mixed with cationic liposome at a ratio of 1:3 (pCMVβ:liposome; w/w). After being washed briefly in serum free media, ND7 cells were exposed to the […] complexes for two hours and then returned to serum containing media Twenty-four hours later the cells were harvested and processed for β-galactosidase enzyme assay. Each condition was performed in triplicate and each experiment replicated three times. Numbers represent means±SD.
ND7s are a well-characterized cell line derived from the fusion of a neuroblastoma N18Tg2) with neonatal rat sensory neurons ^28. The cell line was maintained in normal growth media (NGM) (Leibovitz's L-15 media (BRL) enriched with 10% Fetal bovine serum (BRL), 4 g/L glucose, 4 g/L sodium bicarbonate (BRL), 100 IU/mL penicillin/streptomycin (BRL)) at 37° C. and 5% CO2. The cells were plated onto 24 well plates (Costar) at a density that produced 70% confluence after 24 hours.
Since initial experiments determined that the presence of fetal bovine serum inhibited transfection of ND7 cells serum-free differentiation media was used for all transfections. Various amounts of DNA and liposome were placed in the bottom of a 7 mL sterile Bijou container (Bibby Sterilin Ltd., Staffordshire, U.K.), but not in contact with each other.
DNA and liposomes were combined by the addition of 400 μL serum-free differentiation media and gentle shaking. The DNA: liposome mixture was incubated at room temperature for 20 to 30 minutes before being applied to the cells. The DNA/liposome mixture was then applied to the cells and incubated at 37° C., 5% CO2 for 2 hours after which this media was replaced with complete media Twenty four to 48 hours later the cells were fixed and processed for X-gal histochemistry as described ^31 or harvested for β-galactosidase enzyme assays (Promega Corp.).
Transfection complexes including the test peptides were generated in the following manner. Various amounts of peptide was placed in the bottom of sterile polystyrene containers alongside, but not in contact with 1 μg·pCMVβ and mixed by adding 400 μl serum free NGM media The complexes were incubated at room temperature for 10 minutes after which DC-Chol/DOPE was added. The pDNA/peptide/liposome complex was further incubated at room temperature for 20 minutes and then administered to cells as above.
We examined the ability of Mu1 and Vp1 to enhance the transfection of a neuronal cell line by cationic liposomes using a β-Galactosidase reporter gene assay. ND7 cells were transfected with pCMVβ complexed to varying amounts of peptide and DC-Chol/DOPE. We have previously shown that the cationic liposome DC-Chol/DOPE is capable of efficiently transfecting the neuronally derived ND7 cell line ^31. […] Temporally, maximal levels of transgene expression are obtained between 48-60 hours post transfection. Therefore, in order to maximize the chance of detecting improvements in transfection we performed all our assays within 12-20 hours of transfection at a time when levels of reporter gene expression were lower. Previously we found a pDNA: liposome ratio of 1:3 (w/w) optimal for transfections in ND7 cells ^31. […]

[3] = charge ratios worked out from the sequence; type: physicochemical
Source text: Mu1 is a polycationic peptide comprised of 19 amino acids associated with the core complex of Adenovirus (Table 1) ^27, 32. We compared the DNA binding capacity of Mu1 with the mouse polyomavirus major capsid protein Vp1 by interaction with plasmid DNA in a gel retardation assay. Vp1 is a 19 amino acid peptide that contains a nuclear localization signal ^26 and contains fewer positively charged amino acids than Mu1. It was therefore predicted to have a lower DNA binding capacity.
The success of non-viral gene delivery vehicles as viable alternatives to virus vector-based systems is dependent on the development of complexes with higher and longer lasting transfection efficiencies. Since the initial identification of cationic liposomes as vehicles for the transfer of genetic material into cells there has been a large push to develop better cationic liposome formulations ^5, 7. Most attempts at improving cationic liposomes have been based on structural modifications to the molecule itself ^30. Novel formulations have been developed which have improved transfection efficiencies ^30. However, particular cell types behave differently in regards to cationic liposomal transfection. For example, we found the polypeptide Mu1 better at enhancing cationic liposome mediated transfection than Vp1. This was probably due to Mu1's greater charge ratio. While both peptides are approximately the same molecular weight, the overall charge ratio of Mu1 was more than twice that of Vp1 (Table 1). […] While a small shift in pDNA mobility was detected when 0.25 μg Mu1 was complexed to 1 μg pCMVβ, almost all of the plasmid was retained near the loading well following addition of 0.5 μg Mu1 (FIG. 1). A 0.5/1.0 (w/w) ratio of Mu1 to pCMVβ corresponds to a 1000/1 molar ratio. Each molecule of Mu1 contains 12 residues that could potentially carry a positive charge. The theoretical charge ratio of Mu1 to pCMVβ would then be 1.6 (12000 Mu1 cations to 7500 pCMVβ anions).

CC(C)CCC[C@@H](C)[C@H]1CC[C@H]2[C@@H]3CC=C4C[C@@H](OC(=O)NCCN(C)C)CC[C@]4(C)[C@H]3CC[C@]12C [DC-Chol, 3β[N-(N′,N′-dimethylaminoethane)carbamoyl] cholesterol, reference compound]
rank order in transfection efficiency, corresponding LD systems (ND7 cells [1]): B198>DC-Chol>B232

RPRRRATTRRRTTTGTRRRRRRR [p5, peptide derived from protein V, pV]
transfection activity compared to poly lysine and poly arginine complexes (HeLa cells): excellent transfection activity

NH2—Met—Ala—Pro—Lys—Arg—Lys—Ser—Gly—Val—Ser—Lys—Cys—Glu—Thr—Lys—Cys—Thr—Pro—Pro—OH (H-MAPKRKSGVSKCETKCTPP-OH; cysteine pairing not given here) [Vp1, 19 amino acid peptide of mouse polyomavirus major capsid protein Vp1, contains a nuclear localization signal, reference compound]
ratio protein:pDNA at which there was first any effect on relaxed pDNA (plasmid DNA (pCMVβ); 1 μg pCMVβ, 1% agarose gel): 32 w/w | ratio protein:pDNA causing significant retardation of supercoiled pDNA (plasmid DNA (pCMVβ); 1 μg pCMVβ, 1% agarose gel): ≥ 6 w/w | effect on electrophoretic mobility of plasmid DNA (plasmid DNA (pCMVβ); pDNA:protein ratios up to 1:8 (w/w)): no effect on the electrophoretic mobility | improvement on transfection efficiency (ND7 cells [2]): no improvement on transfection efficiency | Charge/AA ratio [3]: 0.26

VRRVHHRRRRVSHRRVRGG [peptide analogue of Mu1]
transfection activity compared to poly lysine and poly arginine complexes (HeLa cells): excellent transfection activity

CC(C)CCCC(C)C1CCC2C3CC=C4CC(OC(=O)NCCNCCCNCCN)CCC4(C)C3CCC12C (stereo not drawn) [B198]
rank order in transfection efficiency, corresponding LD systems (ND7 cells [1]): B198>DC-Chol>B232
